# From ChEMBL document CHEMBL2021770, “Potent and Selective Inhibitors of Long Chain l-2-Hydroxy Acid Oxidase Reduced Blood Pressure in DOCA Salt-Treated Rats” (ACS Med Chem Lett, 2011)
# pIC50: −log10 of the molar value. The source made the active and inactive calls. No cut-off for these calls is given here.
# Tests used:
# [1] = system: Kidney; assay: Drug uptake in Wistar rat kidney at 3 mg/kg, po bid administered for 15 days measured 1 hr post-last dose; assay type: ADME, organism-based; design: dose 3 mg/kg, route oral; conditions: in vivo
# [2] = Cmax in rat at 10 mg/kg, po; assay type: ADME, organism-based; design: dose 10 mg/kg, route oral; conditions: in vivo
# [3] = Oral bioavailability in rat at 10 mg/kg; assay type: ADME, organism-based; conditions: in vivo
# [4] = Volume of distribution at steady state in rat at 1 mg/kg, iv; assay type: ADME, organism-based; design: dose 1 mg/kg, route intravenous; conditions: in vivo, read-out: Vdss
# [5] = target: T1, Nuclear receptor subfamily 1 group I member 2 (Homo sapiens, UniProt O75469); assay: Induction of PXR at 100 uM
# T1 sequence (O75469 whole entry): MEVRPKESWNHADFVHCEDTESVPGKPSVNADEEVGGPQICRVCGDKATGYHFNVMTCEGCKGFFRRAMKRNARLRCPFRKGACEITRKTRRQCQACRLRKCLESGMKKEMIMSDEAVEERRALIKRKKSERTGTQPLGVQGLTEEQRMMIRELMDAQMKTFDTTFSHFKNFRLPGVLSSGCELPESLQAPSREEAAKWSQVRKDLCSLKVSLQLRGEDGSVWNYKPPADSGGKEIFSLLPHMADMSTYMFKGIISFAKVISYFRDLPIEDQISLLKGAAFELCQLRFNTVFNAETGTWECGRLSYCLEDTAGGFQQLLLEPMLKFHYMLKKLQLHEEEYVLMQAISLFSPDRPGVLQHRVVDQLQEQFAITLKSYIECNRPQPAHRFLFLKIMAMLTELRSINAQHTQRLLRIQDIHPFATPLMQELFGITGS
# [6] = Drug metabolism in rat liver microsomes assessed as metabolic rate per 0.125 mg/mL protein; assay type: ADME, Microsome
# [7] = Elimination half life in rat at 1 mg/kg, iv; assay type: ADME, organism-based; design: dose 1 mg/kg, route intravenous; conditions: in vivo, read-out: beta t1/2 (converted)
# [8] = target: Cytochrome P450 3A4 (Homo sapiens, UniProt P08684); assay: Inhibition of CYP3A4; assay type: ADME
# [9] = Clearance in rat at 1 mg/kg, iv; assay type: ADME, organism-based; design: dose 1 mg/kg, route intravenous; conditions: in vivo
# [10] = Induction of cytochrome P450 at 10 uM; assay type: ADME
# [11] = AUC (0 to 8 hrs) in rat at 10 mg/kg, po; assay type: ADME, organism-based; design: time < 8 hr, dose 10 mg/kg, route oral; conditions: plasma
# [12] = system: Plasma; assay: Plasma concentration in Wistar rat at 3 mg/kg, po bid administered for 15 days measured 12 to 15 hrs post-last dose; assay type: ADME, organism-based; design: dose 3 mg/kg, route oral; conditions: in vivo
# [13] = target: T2, Cytochrome P450 1A2 (Homo sapiens, UniProt P05177); assay: Inhibition of CYP1A2; assay type: ADME
# T2 sequence (P05177 whole entry): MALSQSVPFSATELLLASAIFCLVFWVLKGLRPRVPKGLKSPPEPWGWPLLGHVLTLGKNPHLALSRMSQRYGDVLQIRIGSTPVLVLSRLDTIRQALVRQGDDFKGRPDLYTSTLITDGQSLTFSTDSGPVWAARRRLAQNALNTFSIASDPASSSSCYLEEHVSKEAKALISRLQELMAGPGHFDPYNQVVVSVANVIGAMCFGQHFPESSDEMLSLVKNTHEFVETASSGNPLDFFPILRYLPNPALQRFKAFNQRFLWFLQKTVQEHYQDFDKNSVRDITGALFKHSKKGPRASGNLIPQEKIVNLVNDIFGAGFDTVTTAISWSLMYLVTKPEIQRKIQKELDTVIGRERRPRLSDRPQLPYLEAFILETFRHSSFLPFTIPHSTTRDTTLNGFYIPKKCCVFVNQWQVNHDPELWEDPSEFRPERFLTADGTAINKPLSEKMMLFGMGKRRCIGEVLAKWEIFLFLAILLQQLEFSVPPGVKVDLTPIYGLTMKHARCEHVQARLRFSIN
# [14] = target: Cytochrome P450 2C19 (Homo sapiens, UniProt P33261); assay: Inhibition of CYP2C19; assay type: ADME
# [15] = Plasma concentration in Wistar rat at 3 mg/kg, po bid administered for 15 days measured 1 hr post-last dose; assay type: ADME, organism-based; design: dose 3 mg/kg, route oral
# [16] = Plasma protein binding in rat; assay type: ADME, cell-free; conditions: read-out: PPB
# [17] = system: Kidney; assay: Drug uptake in Wistar rat kidney at 3 mg/kg, po bid administered for 15 days measured 12 to 15 hrs post-last dose; assay type: ADME, organism-based; design: dose 3 mg/kg, route oral; conditions: in vivo
# [18] = Tmax in rat at 10 mg/kg, po; assay type: ADME, organism-based; design: dose 10 mg/kg, route oral; conditions: in vivo
# [19] = AUC (0 to 8 hrs) in rat at 1 mg/kg, iv; assay type: ADME, organism-based; design: time < 8 hr, dose 1 mg/kg, route intravenous; conditions: plasma
# [20] = system: Kidney; assay: Drug uptake in Wistar rat kidney at 30 mg/kg, po bid administered for 15 days measured 1 hr post-last dose; assay type: ADME, organism-based; design: dose 30 mg/kg, route oral; conditions: in vivo
# [21] = target: Cytochrome P450 2D6 (Homo sapiens, UniProt P10635); assay: Inhibition of CYP2D6; assay type: ADME
# [22] = target: Cytochrome P450 2C9 (Homo sapiens, UniProt P11712); assay: Inhibition of CYP2C9; assay type: ADME
# [23] = system: Plasma; assay: Plasma concentration in Wistar rat at 30 mg/kg, po bid administered for 15 days measured 12 to 15 hrs post-last dose; assay type: ADME, organism-based; design: dose 30 mg/kg, route oral; conditions: in vivo
# [24] = target: T3, 2-Hydroxyacid oxidase 2 (Rattus norvegicus, UniProt Q07523); assay: Inhibition of rat His6-tagged Hao2 expressed in Escherichia coli BL21/DE3 using 2-hydroxyoctanoic acid as substrate measured every 10 secs by spectrophotometry
# T3 sequence (Q07523 whole entry): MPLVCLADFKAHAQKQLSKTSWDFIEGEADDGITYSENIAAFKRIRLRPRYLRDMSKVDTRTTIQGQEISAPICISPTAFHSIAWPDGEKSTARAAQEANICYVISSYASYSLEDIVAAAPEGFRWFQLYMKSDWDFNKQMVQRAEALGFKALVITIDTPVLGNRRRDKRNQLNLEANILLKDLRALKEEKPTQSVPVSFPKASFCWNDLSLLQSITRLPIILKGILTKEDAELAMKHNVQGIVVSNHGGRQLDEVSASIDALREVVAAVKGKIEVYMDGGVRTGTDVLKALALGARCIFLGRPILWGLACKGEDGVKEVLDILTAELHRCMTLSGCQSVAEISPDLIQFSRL
# [25] = Plasma concentration in Wistar rat at 30 mg/kg, po bid administered for 15 days measured 1 hr post-last dose; assay type: ADME, organism-based; design: dose 30 mg/kg, route oral
# [26] = Elimination half life in rat at 10 mg/kg, po; assay type: ADME, organism-based; design: dose 10 mg/kg, route oral; conditions: in vivo, read-out: beta t1/2 (converted)
# [27] = target: T4, 2-Hydroxyacid oxidase 2 (Rattus norvegicus) (UniProt Q07523); assay: Inhibition of rat His6-tagged Hao2 expressed in Escherichia coli BL21/DE3 using 2-hydroxyoctanoic acid as substrate at 10 uM measured every 10 secs by spectrophotometry
# T4 sequence (whole entry): T3 sequence (Q07523 whole entry)
# [28] = system: HepG2; assay: Cytotoxicity against human HepG2 cells; assay type: cell-based
# [29] = system: Rattus norvegicus; assay: (§1) Ex-vivo inhibition of Hao2 in DOCA-salt treated Wistar rat kidney using [3H]-2-hydroxyoctanate as substrate assessed as inhibition of [3H]-H2O production at 30 mg/kg, po bid administered 29 days post DOCA-challenge for 15 days measured 1 hr post-last dose by microbeta counting relative to vehicle-treated control; assay type: functional
# [30] = target: Hydroxycarboxylic acid receptor 2 (Homo sapiens) (UniProt Q8TDS4); assay: Agonist activity at human GPR109a at 10 uM; assay type: functional
# [31] = system: Rattus norvegicus; assay: Antihypertensive activity in DOCA-salt treated Wistar rat assessed as decrease in systolic blood pressure at 30 mg/kg, po bid administered 29 days after DOCA-salt-challenge for 15 days 12 to 15 hrs post-last dose by plethysmography; assay type: functional, Artery
# [32] = system: Rattus norvegicus; assay: as §1, with “3” for “30”, “12 to 15 hrs” for “1 hr”; assay type: functional
# [33] = system: Rattus norvegicus; assay: Antihypertensive activity in DOCA-salt treated Wistar rat assessed as decrease in systolic blood pressure at 3 mg/kg, po bid administered 29 days after DOCA-salt-challenge for 15 days 12 to 15 hrs post-last dose by plethysmography; assay type: functional
# [34] = system: Rattus norvegicus; assay: as §1, with “3” for “30”; assay type: functional
# [35] = system: Rattus norvegicus; assay: as §1, with “12 to 15 hrs” for “1 hr”; assay type: functional
# [36] = species on record: Rattus norvegicus; assay: Selectivity ratio of IC50 for rat Hao1 to IC50 for rat Hao2
# [37] = target: T5, 2-Hydroxyacid oxidase 1 (Rattus norvegicus) (UniProt B0BNF9); assay: Inhibition of rat His6-tagged Hao1 expressed in Escherichia coli BL21/DE3 using glcolic acid as substrate at 10 uM measured every 10 secs by spectrophotometry
# T5 sequence (whole entry): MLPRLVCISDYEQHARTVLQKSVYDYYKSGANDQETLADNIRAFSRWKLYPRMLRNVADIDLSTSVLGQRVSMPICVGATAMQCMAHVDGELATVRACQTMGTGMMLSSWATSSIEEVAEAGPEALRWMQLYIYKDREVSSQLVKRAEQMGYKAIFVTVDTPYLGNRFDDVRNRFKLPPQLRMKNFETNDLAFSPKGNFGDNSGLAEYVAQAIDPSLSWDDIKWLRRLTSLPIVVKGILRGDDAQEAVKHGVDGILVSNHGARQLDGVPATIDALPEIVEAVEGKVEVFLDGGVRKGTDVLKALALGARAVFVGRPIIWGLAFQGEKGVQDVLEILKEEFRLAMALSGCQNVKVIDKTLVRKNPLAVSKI
# [38] = target: T6, 2-Hydroxyacid oxidase 1 (Rattus norvegicus, UniProt B0BNF9); assay: Inhibition of rat His6-tagged Hao1 expressed in Escherichia coli BL21/DE3 using glcolic acid as substrate measured every 10 secs by spectrophotometry
# T6 sequence (B0BNF9 whole entry): T5 sequence (whole entry)
# [39] = system: Kidney; assay: Drug uptake in Wistar rat kidney at 30 mg/kg, po bid administered for 15 days measured 12 to 15 hrs post-last dose; assay type: ADME, organism-based; design: dose 30 mg/kg, route oral; conditions: in vivo
# [40] = system: Rattus norvegicus; assay: Antihypertensive activity in Wistar rat assessed as reduction in DOCA-salt-induced systolic blood pressure elevation at 30 mg/kg, po bid administered on day 14 post DOCA-challenge for 21 days measured 12 to 15 hrs post-last dose by plethysmography relative to vehicle-treated control; assay type: functional, organism-based; design: dose 30 mg/kg; conditions: Artery
# Sequence of Cytochrome P450 2C9 (P11712 whole entry): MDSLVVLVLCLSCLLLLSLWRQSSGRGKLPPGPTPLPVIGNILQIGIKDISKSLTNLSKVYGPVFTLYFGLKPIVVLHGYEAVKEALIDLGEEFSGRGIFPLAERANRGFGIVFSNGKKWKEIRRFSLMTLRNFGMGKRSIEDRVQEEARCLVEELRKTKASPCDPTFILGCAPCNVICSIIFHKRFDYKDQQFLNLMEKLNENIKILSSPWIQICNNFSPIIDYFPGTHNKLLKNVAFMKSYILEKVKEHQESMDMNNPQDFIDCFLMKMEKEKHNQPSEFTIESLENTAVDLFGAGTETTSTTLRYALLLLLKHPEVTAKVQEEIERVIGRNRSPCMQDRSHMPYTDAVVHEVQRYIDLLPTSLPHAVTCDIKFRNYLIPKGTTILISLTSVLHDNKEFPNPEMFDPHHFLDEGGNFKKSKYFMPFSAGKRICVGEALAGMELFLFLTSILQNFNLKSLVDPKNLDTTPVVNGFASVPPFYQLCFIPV
# Sequence of Cytochrome P450 2C19 (P33261 whole entry): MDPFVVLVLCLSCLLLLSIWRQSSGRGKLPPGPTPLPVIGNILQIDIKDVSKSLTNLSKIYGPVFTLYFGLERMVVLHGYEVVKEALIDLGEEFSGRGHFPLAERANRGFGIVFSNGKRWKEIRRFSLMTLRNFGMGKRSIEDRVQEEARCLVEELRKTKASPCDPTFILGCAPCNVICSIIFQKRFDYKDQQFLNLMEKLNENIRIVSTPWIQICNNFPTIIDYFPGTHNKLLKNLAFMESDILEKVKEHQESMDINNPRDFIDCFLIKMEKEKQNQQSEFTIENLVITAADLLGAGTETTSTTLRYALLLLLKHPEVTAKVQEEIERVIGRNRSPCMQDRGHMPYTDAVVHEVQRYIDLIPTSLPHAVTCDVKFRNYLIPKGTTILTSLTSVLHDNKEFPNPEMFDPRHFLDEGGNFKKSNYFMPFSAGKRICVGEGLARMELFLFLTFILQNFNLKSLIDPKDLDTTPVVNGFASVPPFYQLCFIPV
# Sequence of Cytochrome P450 3A4 (P08684 whole entry): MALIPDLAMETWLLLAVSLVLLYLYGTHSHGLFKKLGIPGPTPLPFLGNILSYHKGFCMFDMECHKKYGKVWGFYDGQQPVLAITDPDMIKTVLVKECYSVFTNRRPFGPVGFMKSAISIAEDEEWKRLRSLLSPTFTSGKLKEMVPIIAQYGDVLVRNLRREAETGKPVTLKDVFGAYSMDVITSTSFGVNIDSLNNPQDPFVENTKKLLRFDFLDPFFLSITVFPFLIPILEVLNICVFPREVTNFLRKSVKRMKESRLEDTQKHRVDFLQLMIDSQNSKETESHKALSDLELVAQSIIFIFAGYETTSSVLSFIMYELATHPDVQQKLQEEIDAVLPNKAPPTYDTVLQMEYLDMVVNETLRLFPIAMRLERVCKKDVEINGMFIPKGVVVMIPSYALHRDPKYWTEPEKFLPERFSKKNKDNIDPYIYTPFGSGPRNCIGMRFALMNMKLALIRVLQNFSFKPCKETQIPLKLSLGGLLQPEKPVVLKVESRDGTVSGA
# Sequence of Hydroxycarboxylic acid receptor 2 (Homo sapiens) (Q8TDS4 whole entry): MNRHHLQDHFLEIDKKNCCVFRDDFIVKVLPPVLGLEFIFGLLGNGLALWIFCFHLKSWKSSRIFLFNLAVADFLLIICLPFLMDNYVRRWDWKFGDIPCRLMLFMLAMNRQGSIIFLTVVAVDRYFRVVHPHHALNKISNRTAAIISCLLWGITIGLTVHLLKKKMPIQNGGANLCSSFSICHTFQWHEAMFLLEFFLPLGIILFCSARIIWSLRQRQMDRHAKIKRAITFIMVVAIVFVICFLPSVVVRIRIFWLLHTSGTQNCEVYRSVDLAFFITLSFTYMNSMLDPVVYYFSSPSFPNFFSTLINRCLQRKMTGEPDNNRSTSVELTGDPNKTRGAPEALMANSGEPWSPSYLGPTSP
# Sequence of Cytochrome P450 2D6 (P10635 whole entry): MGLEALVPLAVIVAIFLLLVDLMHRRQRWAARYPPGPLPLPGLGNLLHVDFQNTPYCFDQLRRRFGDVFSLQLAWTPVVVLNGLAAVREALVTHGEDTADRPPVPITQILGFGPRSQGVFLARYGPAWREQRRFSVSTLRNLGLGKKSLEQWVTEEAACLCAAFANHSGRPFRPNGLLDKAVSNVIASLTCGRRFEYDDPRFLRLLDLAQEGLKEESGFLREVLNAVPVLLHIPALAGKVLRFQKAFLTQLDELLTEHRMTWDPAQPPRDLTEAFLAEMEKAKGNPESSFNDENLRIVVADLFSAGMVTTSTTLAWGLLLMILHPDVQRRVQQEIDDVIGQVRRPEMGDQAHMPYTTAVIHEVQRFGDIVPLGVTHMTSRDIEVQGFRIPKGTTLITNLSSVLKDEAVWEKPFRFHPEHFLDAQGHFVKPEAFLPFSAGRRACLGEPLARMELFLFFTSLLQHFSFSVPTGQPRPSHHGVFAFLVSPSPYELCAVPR
Structure (SMILES),Drug uptake [1] [nmol/g],Cmax [2] [µM],bioavailability [3] [%],Vd [4] [L/kg],Activity [5],Drug metabolism [6] [nmol/min/mg],half-life [7] [h],pIC50 [8],clearance [9] [mL/min/kg],Activity [10],AUC(0-t) at 8 h [11] [µM·h],concentration [12] [µM],pIC50 [13],pIC50 [14],concentration at 1 h [15] [µM],fraction unbound [16],Drug uptake [17] [nmol/g],Tmax [18] [h],AUC(0-t) at 8 h [19] [µM·h],Drug uptake [20] [nmol/g],also measured
Cc1[nH]nc(C(=O)O)c1Cc1cc2ccccc2s1,34,134,53,0.14,Not Active,0.02,3.7,< 5.00,0.52,Not Active,517,12,< 5.00,< 5.00,48,< 0.01,13,0.25,97,113,pIC50 [21]: < 5.00; pIC50 [22]: < 5.00; concentration [23]: 86 µM; pIC50 [24]: 6.52; concentration at 1 h [25]: 157 µM; half-life [26]: 4.1 h
Cc1n[nH]c(C(=O)O)c1-c1ccc(F)cc1,–,–,–,–,–,–,–,–,–,–,–,–,–,–,–,–,–,–,–,–,inhibition [27]: 35%
Cc1n[nH]c(C(=O)O)c1Cc1cc2ccccc2s1,–,–,–,–,–,–,–,–,–,–,–,–,–,–,–,–,–,–,–,–,pIC50 [28]: < 4.00; inhibition in vivo at 30 mg/kg [29]: 93%; Activity [30]: inactive; Activity [31]: 33 mmHg; inhibition in vivo at 3 mg/kg [32]: 0%; Activity [33]: 27 mmHg; inhibition in vivo at 3 mg/kg [34]: 75%; inhibition in vivo at 30 mg/kg [35]: 42%; Ratio IC50 [36]: 150; inhibition [37]: inactive
Cc1n[nH]c(C(=O)O)c1Cc1cccc(-c2ccc(F)cc2)c1,10,24,38,0.6,Not Active,0.003,1.7,< 5.00,8,Not Active,27,0.2,< 5.00,< 5.00,2.2,< 0.01,3,0.25,7.1,24,pIC50 [28]: < 4.00; inhibition in vivo at 30 mg/kg [29]: 38%; Activity [30]: inactive; Activity [31]: 31 mmHg; inhibition in vivo at 3 mg/kg [32]: 0%; Activity [33]: 32 mmHg; pIC50 [38]: 4.34; Drug uptake [39]: 7 nmol/g; inhibition in vivo at 3 mg/kg [34]: 29%; Activity [40]: Active; inhibition in vivo at 30 mg/kg [35]: 28%; pIC50 [21]: < 5.00; Ratio IC50 [36]: 150; pIC50 [22]: < 5.00; concentration [23]: 1.9 µM; pIC50 [24]: 6.52; concentration at 1 h [25]: 8 µM; half-life [26]: 1.5 h
